From patent US20050214898A1, “Methods of carotenoid production in bacteria” (priority 2004, published 2005)
Where “and” joins values, the source holds several entries; their conditions need not be identical. Equal values may be shown once. Entries after “also recorded” stand apart in the source; their conditions may differ.

Tests used:
F. multivorum ATCC 55238 = test: Effect of salt supplementation of the basal medium on growth and carotenoid production (shake flask); assay type: cell-based, Flavobacterium multivorum; details: for effect on growth: basal medium supplemented with salt; for effect on the volumetric production of β-carotene / β-carotene as proportion of the total carotenoid content: basal medium supplemented with salt 250 mg/100 ml
Method: (§1) Pigment extraction from bacterial cells. One ml of culture broth was centrifuged at 5000 rpm for 10 min at 4° C. The supernatant was discarded and media components of the cell pellet were washed away by repeated suspension in sterile distilled water and centrifugation. The cell mass was subjected to sonication using a sonic dismembrator (Fisher Scientific, Model number F60) in the presence of 1 ml cold, oxygen-free methanol containing 0.01% butylated hydroxy toluene (BHT) (w/v) for 30 seconds (output power 5). Methanol extraction was repeated for complete extraction of carotenoids. The sonicated sample was centrifuged to remove the white cell pellet. The supernatant contains extracted carotenoids.
(§2) High performance liquid chromatography (HPLC). The pigments in methanol were dried by vacuum evaporation in a Speedvac Plus (SC 110, Savant) and re-dissolved in one ml of HPLC mobile phase (hexane: dichloromethane: methanol: N,N′-di-isopropylethylamine (80:19.2:0.7:0.1 v/v)). HPLC separation was carried out at a flow rate of 1.0 ml min^−1 on a cyano column (Microsorb 25 cm length×4.6 mm id, Rainin Instrument Co. Woburn, Mass., U.S.A.). The column was maintained at room temperature and the HPLC detector was operated at 450 nm. Peak identities were confirmed by photodiode-array spectra and by coelution with authentic standards as necessary.
Cell growth measurement. Cell growth was monitored by measurement of turbidity at […] with a UV-visible spectrophotometer (Smart Spec™ 3000, BioRad). Samples were suitably diluted (so as to have absorbance of between 0.2 to 0.8) with double distilled water. The absorbance was measured immediately at 500 nm. For cell dry weight (CDW) estimation, the 10 ml sample was centrifuged at 10,000 g for 10 minutes and washed twice with double distilled water by suspension and centrifugation. The supernatant was discarded and the cell pellet was taken to constant weight in an oven at 80° C.
Effect of salt supplementation. F. multivorum was studied for growth and carotenoid production in the liquid basal medium supplemented with the salts listed in Table 1 (see, FIG. 7) (250 mg/100 ml) to evaluate the effect of mineral salts. The F. multivorum cultures were grown in quadruplicate in shake flask cultures at 30° C. on a rotary shaker rotates at 250 rpm.

F. multivorum = test: Effect of TCA cycle intermediates in the growth medium on zeaxanthin production; assay type: cell-based, Flavobacterium multivorum; details: growth medium supplemented with TCA intermediate
Method: as §1
as §2, with “nm.” for “nm. Peak identities were confirmed by photodiode-array spectra and by coelution with authentic standards as necessary.”
Media optimization for zeaxanthin production.

SMILES | effect on growth (F. multivorum ATCC 55238) | effect on the volumetric production of β-carotene (F. multivorum ATCC 55238) | β-carotene as proportion of the total carotenoid content (F. multivorum ATCC 55238) | effect on the volumetric production of zeaxanthin (F. multivorum) | also measured
O=C([O-])[O-].[Na+].[Na+] [sodium carbonate] | minor inhibition on growth | positive effect; also recorded: maximum stimulatory effect | 70 % (w/w) and 69 % (w/w) | – | –
O=C(O)CC(O)C(=O)O (stereo not drawn) [malic acid] | – | – | – | maximum stimulatory effect | –
NC(N)=O [Urea, urea] | minor inhibition on growth | maximum stimulatory effect | 66 % (w/w) | – | effect on the volumetric production of β-carotene (F. multivorum ATCC 55238; listed as urea): positive effect; β-carotene as proportion of the total carotenoid content (F. multivorum ATCC 55238; listed as urea): 70 % (w/w)
O=C(O)CC(C(=O)O)C(O)C(=O)O (stereo not drawn) [Isocitric acid, isocitric acid] | – | – | – | maximum stimulatory effect | –
[Cl-].[Li+] [Lithium chloride] | – | – | – | – | maximum β-carotene level (proportion of total carotenoid) (F. multivorum ATCC 55238; at 24 h of growth phase): 44 %, w/w; β-carotene level (proportion of total carotenoid) (F. multivorum ATCC 55238; end of fermentation (48 h)): 21 % (w/w)
[Ca+2].[Cl-].[Cl-] [calcium chloride] | minor inhibition on growth | maximum stimulatory effect | 52 % (w/w) | – | –
